Measurements reported in patent publication US20090023755A1, “USE OF ISTRADEFYLLINE FOR TREATING BEHAVIORAL DISORDERS” (KYOWA HAKKO KOGYO CO., LTD., priority 2002, published 2009).

Experiments:
[1] = test system: 6-hydroxydopamine-treated young rats; experiment: Tic/Tourette like symptoms in 6-hydroxydopamine-treated young rats; format: in vivo, rat
Description: Methods: 6-HODA was injected into the left medial forebrain bundle of a rat to induce a unilateral lesion of dopaminergic neurons, followed by repeated oral administration of L-DOPA at 20 mg/kg twice daily for 2 weeks to make a rat model of tic-like symptoms.
Tic-like, abnormal involuntary movements were observed after day 3 during repetitive treatment with L-DOPA. Two subtypes of involuntary movements were classified as axial (lateral torsion of the head, neck and trunk towards the side contralateral to the lesion, including swing of the head) and forelimb (abnormal movements contralateral to the lesion, including kicking movements of the forelimb).
The severity of these movements was assigned a score from 0 to 4 to each movement as follows.
(score 0) no deviation of head
(score 1) lateral deviation of head: […]
(score 2) lateral deviation of head: more than 30°, and 60° or less
(score 3) torsion of head and upper trunk: more than 60°, and 90° or less
(score 4) torsion of head and trunk: more than 90°
(score 0) no movements of both distal and proximal forelimbs
(score 1) tiny oscillatory movements of the distal forelimb
(score 2) movements of low amplitude but causing visible translocation of both distal and proximal forelimbs
(score 3) translocation of the whole limb with visible contraction of shoulder muscles
(score 4) vigorous limb and shoulder movements of maximal amplitude
Compound (I) was repeatedly administered orally to 6-HODA treated rats at 1 mg/kg for 23 days, and Tic-like, abnormal involuntary movements were observed every 10 minutes for 3 hours, each time for one minute.
Peak score was obtained by adding the peak score for forelimb to that for axial (Data are expressed as mean±standard deviation in the following Table 1). Peak time means the time after the first administration when peak score was score observed.

[2] = test system: dd-strain male mice; experiment: Acute toxicity test; format: in vivo; conditions: oral administration, mortality seven days after administration
Description: Compound (I) was orally or intraperitoneally administered to groups of dd-strain male mice weighing 20±1 g, each group consisting of three mice.

[3] = test system: young rats; experiment: Acquisition of a delayed alternation task in young rats; format: in vivo, rat; conditions: for Choice reaction times per session (mean ± s.e.m.) / Simple reaction times per session (mean ± s.e.m.): 0.3 mg/kg p.o. -60 min
Description: The following experiment was carried out according to a method described in Drug Dev. Res., 35, p. 83-95 (1996) with a slight modification. Methods: Male Rj: Wistar (Han) rats were used for the experiments. Before being tested, the rats were given the standard diet each day. Several 45 mg food pellets (these were also used in the delayed alternation sessions described below) were also given them to habituate them to this novel food.
The aim of this phase is to train rats, on the presentation of a single centralized retractable lever, to press on it to receive a food pellet.
The rats were subjected to 10 lever-pressing acquisition sessions in the experimental chambers according to a fixed ratio (FR1) schedule of reinforcement. Reinforcement consists of food pellets (45 mg) delivered after each lever-press. Each daily session lasts 15 minutes. All rats received an intraperitoneal administration of physiological saline 30 minutes before each session. During the first 7 sessions, the Skinner boxes were equipped with only one fixed lever situated centrally above the food receptacle, to avoid spatial preference for the right or the left side of the experimental panel. After the 7th lever-pressing session, the boxes were equipped with two retractable levers located on either side of the food receptacle. The rats were then subjected to 3 consecutive sessions in which the left or the right lever was pseudo-randomly presented every 5 seconds. At the end of this phase 80 to 100% of the rats acquired the lever press-response. […] If some rats were close to establishing steady lever-pressing behavior they were given extra training with the aim of attaining at least 10 rats per group. Rats were assigned to treatment groups matched on the basis of their performance.
Subsequent to lever-press acquisition sessions, all rats were subjected to delayed alternation sessions. The test was conducted for 5 days. During this phase, the boxes were equipped with two retractable levers on each side of the food distributor. Each session consisted of 35 successive trials every 10 seconds. In each trial, the rat was first presented with one lever (left or right). When the rat pressed on the lever, the rat was given a food pellet, the lever was retracted and 5 seconds later two levers were presented. The rat had to learn to press on the lever opposite to that previously presented to gain a food pellet (non-matching to sample).
Compound (I) was suspended in 0.5% methylcellulose in distilled water and administered orally 60 minutes before each session.
The effect of Compound (I) was evaluated by measuring simple reaction time, which means the reaction time to each one-lever presentation, and choice reaction time, which means the reaction time to each two-lever presentation.

[4] = test system: 6-hydroxydopamine-treated neonatal rats; experiment: Locomotor activity in 6-hydroxydopamine-treated neonatal rats; format: in vivo, rat
Description: Methods: Female neonatal SD rats were used for the experiments. 100 μg 6-Hydroxydopamine (6-HODA) was dissolved in a 0.1% solution of ascorbic acid in saline, and the obtained solution or 0.1% ascorbic acid in saline (control) was injected first at 3 days of age into the left lateral ventricle of the rat and secondly at 6 days of age into the right lateral ventricle of the rat. At 30-37 days, locomotor activity was measured by placing the rat in a transparent acrylic box (50×50×50 cm) 60 minutes after the drug administration using digital counters with infrared sensors (Scanet MV-10MT; Toyo Sangyo Co. Ltd., Toyama, Japan).
Compound (I) was suspended in a 0.3% aqueous Tween 80 solution, and administered orally to 6-HODA treated rats.

[5] = 1 mg/kg orally, compared with before administration
[6] = 0.3 mg/kg orally, compared with vehicle control rats

CCn1c(=O)c2c(nc(/C=C/c3ccc(OC)c(OC)c3)n2C)n(CC)c1=O [Compound (I), (E)-8-(3,4-dimethoxystyryl)-1,3-diethyl-7-methylxanthine]
peak score [1, 5]: decreased | peak time [1, 5]: decreased | peak time ([1]; L-DOPA + compound 1 mg/kg p.o., Day 1): 30 min | peak score ([1]; L-DOPA + compound 1 mg/kg p.o., Day 1, n = 6, mean ± standard deviation, forelimb + axial): 5.6 ± 1.4 | peak time ([1]; L-DOPA + compound 1 mg/kg p.o., Day 9): 40 min | peak score ([1]; L-DOPA + compound 1 mg/kg p.o., Day 9, n = 6, mean ± standard deviation, forelimb + axial): 4.4 ± 1.6 | peak time ([1]; L-DOPA + compound 1 mg/kg p.o., Day 23): 20 min | peak score ([1]; L-DOPA + compound 1 mg/kg p.o., Day 23, n = 6, mean ± standard deviation, forelimb + axial): 1.6 ± 0.6 | minimum lethal dose (MLD) [2]: greater than 1000 mg/kg | choice reaction times [3, 6]: significantly decreased | simple reaction times [3, 6]: significantly decreased | Choice reaction times per session (mean ± s.e.m.) ([3]; session S1): 1.71 ± 0.13 s | Simple reaction times per session (mean ± s.e.m.) ([3]; session S1): 3.16 ± 0.24 s | Choice reaction times per session (mean ± s.e.m.) ([3]; session S2): 1.52 ± 0.10 s | Simple reaction times per session (mean ± s.e.m.) ([3]; session S2): 2.49 ± 0.28 s | Choice reaction times per session (mean ± s.e.m.) ([3]; session S3): 1.22 ± 0.12 s | Simple reaction times per session (mean ± s.e.m.) ([3]; session S3): 1.63 ± 0.20 s | Choice reaction times per session (mean ± s.e.m.) ([3]; session S4): 1.13 ± 0.18 s | Simple reaction times per session (mean ± s.e.m.) ([3]; session S4): 1.73 ± 0.21 s | Choice reaction times per session (mean ± s.e.m.) ([3]; session S5): 0.92 ± 0.09 s | Simple reaction times per session (mean ± s.e.m.) ([3]; session S5): 1.33 ± 0.11 s | locomotor activity ([4]; 6-HODA treated rats, 1.25 mg/kg orally, measured 60 minutes after administration): decreased locomotor activities | locomotor activity ([4]; 6-HODA treated rats, 5 mg/kg orally, measured 60 minutes after administration): decreased locomotor activities | locomotor activity ([4]; control rats treated only with 0.1% ascorbic acid in saline (vehicle), oral): increased locomotor activities
